According to a compilation of properties of binary mixtures (doi:10.1016/j.molliq.2016.11.074):

Assay: xn = mol fraction of the nth substance listed
Settings: 100 kPa

O + CC[n+]1ccn(C)c1.CS(=O)(=O)[O-]
Settings | electrical conductivity [S/m]
298.15 K, x1 = 1 | 0.0002

CC[n+]1ccn(C)c1.CS(=O)(=O)[O-] + O
Settings | electrical conductivity [S/m] | speed of sound [m/s]
293.15 K, x2 = 0.0015 | – | 1779
293.15 K, x2 = 0.1905 | – | 1793
293.15 K, x2 = 0.3226 | – | 1808
293.15 K, x2 = 0.4301 | – | 1817
293.15 K, x2 = 0.619 | – | 1851
293.15 K, x2 = 0.7573 | – | 1853
293.15 K, x2 = 0.9048 | – | 1803
298.15 K, x1 = 0.0119 | 2.19 | –
298.15 K, x2 = 0 | 0.45 | 1766
298.15 K, x2 = 0.191 | 0.707 | –
298.15 K, x2 = 0.3226 | – | 1795
298.15 K, x2 = 0.3233 | 0.851 | –
298.15 K, x2 = 0.5054 | – | 1818
298.15 K, x2 = 0.5057 | 1.24 | –
298.15 K, x2 = 0.6206 | – | 1840
298.15 K, x2 = 0.7542 | 2.37 | –
298.15 K, x2 = 0.7573 | – | 1846
298.15 K, x2 = 0.902 | 3.74 | –
298.15 K, x2 = 0.9032 | – | 1791
298.15 K, x2 = 0.9651 | 3.87 | –
303.15 K, x2 = 0 | – | 1753
303.15 K, x2 = 0.3241 | – | 1784
303.15 K, x2 = 0.427 | – | 1793
303.15 K, x2 = 0.5069 | – | 1807
303.15 K, x2 = 0.7542 | – | 1841
303.15 K, x2 = 0.9048 | – | 1779
303.15 K, x2 = 0.9662 | – | 1680
308.15 K, x2 = 0 | – | 1743
308.15 K, x2 = 0.192 | – | 1757
308.15 K, x2 = 0.3241 | – | 1771
308.15 K, x2 = 0.4286 | – | 1783
308.15 K, x2 = 0.5054 | – | 1795
308.15 K, x2 = 0.6206 | – | 1818
308.15 K, x2 = 0.7558 | – | 1838
308.15 K, x2 = 0.9032 | – | 1765
313.15 K, x2 = 0.192 | – | 1745
313.15 K, x2 = 0.3241 | – | 1760
313.15 K, x2 = 0.5084 | – | 1784
313.15 K, x2 = 0.6206 | – | 1808
313.15 K, x2 = 0.7558 | – | 1830
313.15 K, x2 = 0.9662 | – | 1668
